# *: point of attachment. Decanoyl = CCCCCCCCCC(=O)*
# Columns and labels:
# Chymotrypsin = assay: Inhibition of enzymatic degradation of a chromogenic substrate (Example 202); assay type: biochemical; conditions: substrate N-succinyl-Ala-Ala-Pro-Phe-p-Nitroanilide
# Text: The use of chromogenic substrates to monitor activity of proteolytic enzymes is known in the field (for example DelMar, E. G., et al., Anal. Biochem., 99, 316-320, (1979)). For example, N-succinyl-Ala-Ala-Pro-Phe-p-Nitroanilide is commonly used substrate for measuring chymotrypsin activity. Enzymatic cleavage of 4-nitroanilide substrates yields 4-nitroaniline (yellow color under alkaline conditions).
# An assay following the increase in absorbance at 395 nm as a function of time was established in 96 well format using Varioskan Flash Multimode Meter (Thermo Scientific). Each well contained 70 μl of Dulbecco's phosphate buffer saline (Invitrogen catalogue #14190-094), 10 μl of N-succinyl-Ala-Ala-Pro-Phe-p-Nitroanilide (Sigma cat# S 7388) in DMSO (different concentrations were used in order to obtain the inhibition constant), 10 μl of N-terminally acylated peptide or oligopeptide of the invention in varying concentration and 10 μl of a stock solution of an enzyme (chymotrypsin, trypsin, elastase, etc.). The incubations were performed at 37° C. Absorbance at 395 nm was measured immediately after addition of the enzyme to the 96 well plate and also every minute for the next 80 minutes. The concentration of the enzyme was optimized to allow determination of slopes for the time course of initial absorbance increase with and without added inhibitors. The slopes were determined by linear regression of the linear part of the fluorescence trace (for example, the first 10 min of the reaction). Each assay was performed in duplicate and average of the two traces was included in the calculations. The relative effect of N-terminally acylated peptide or oligopeptides of the invention on enzymatic degradation of N-succinyl-Ala-Ala-Pro-Phe-p-Nitroanilide was obtained by comparison of the slopes achieved by the same concentration of the N-terminally acylated peptide or oligopeptides. […] This was done by plotting the slopes achieved with different concentrations of the N-terminally acylated peptide or oligopeptides of the invention as a function of their concentrations and fitting the experimental results using, for example, sigmoidal logistic regression (2 parameters, Sigma Plot v 11). Inhibition constants for the interaction between the N-terminally acylated peptide or oligopeptides of the invention and proteolytic enzymes were also obtained by performing the assay described above with varying concentrations of the inhibitor and substrate and analyzing the results, for example, by double reciprocal transformation as known to the person skilled in the art and described for example in Hubalek, F. et al., J. Med. Chem. 47, 1760-1766 (2004).
# [1] = Hydrophobicity: retention time during reverse phase HPLC; assay type: physicochemical; conditions: Acquity CSH C18; pH 7.2 buffer/CH3CN gradient; 40° C.
# Text: The retention time (RT) during reverse phase HPLC was taken as a measure of hydrophobicity of an N-terminally modified peptide or oligopeptide of the invention, where the connection is: The longer the RT, the more hydrophobic N-terminally modified peptide or oligopeptide. The following running conditions were applied during HPLC analysis:
# Buffer B: 70% (v/v) aq. CH3CN
substance,measurement,setting,value
N-decanoyl-Ala-Ala-Pro-Phe-OH (Decanoyl-AAPF-OH) [Example 33],Ki,Chymotrypsin,850 µM
same,RT (retention time during reverse phase HPLC as a measure of hydrophobicity),[1],4.93 min
